Measurements from patent US20230082968A1, “EXOGENOUS NITRIC OXIDE FOR IMPROVED SUSCEPTIBILITY AND LOWERED ANTIBIOTIC RESISTANCE IN RESISTANT RESPIRATORY BACTERIA” (The University of North Carolina at Chapel Hill, priority 2020, published 2023).

How the values were obtained:
PA 230 = experiment: 24 h combination time kill assay; type: cell-based, P. aeruginosa; details: PA 230 (tobramycin-resistant), COS/NO and tobramycin, 24 h time kill
Method: (§1) Time-kill assays were performed over 24 h in order to quantitatively probe the effect of each antibiotic-NO combination as a function of time [Belley, A. et al. Assessment by time-kill methodology of the synergistic effects of oritavancin in combination with other antimicrobial agents against Staphylococcus aureus. Antimicrob. Agents Chemother. 52, 3820-3822 (2008)]. […] Aliquots were sampled at 0, 3, 6, and 24 h, serially diluted, and logarithmically plated on TSA plates using an Eddy Jet spiral plater (IUL; Farmingdale, NY). Bacterial viability was assessed by counting the number of colonies formed with a Flash & Go colony counter (IUL; Farmingdale, NY).

PA 239 = experiment: 24 h combination time kill assay; type: cell-based, P. aeruginosa; details: PA 239 (tobramycin-resistant), COS/NO and tobramycin, 24 h time kill
Method: as §1

PA 237 = experiment: 24 h combination time kill assay; type: cell-based, P. aeruginosa; details: PA 237, COS/NO and tobramycin, 24 h time kill
Method: as §1

PA 229 = experiment: 24 h combination time kill assay; type: cell-based, P. aeruginosa; details: PA 229, COS/NO and tobramycin, 24 h time kill
Method: as §1

[1] = system: P. aeruginosa strain K (PAK); experiment: Checkerboard assay of antibiotic combinations with COS/NO; type: cell-based, Pseudomonas aeruginosa; details: antibiotic in combination with COS/NO, 24 h
Method: Frozen stocks of bacteria were reconstituted in TSB (3 mL) and cultured overnight. The overnight cultures of bacteria (3 mL) were inoculated into fresh TSB (30 mL) and grown to 10^8 CFU/mL. […] Inhibition was assessed with the resazurin assay and the minimum inhibitory concentration (MIC) was defined as the lowest concentration of antibacterial agent required to prevent the reduction of resazurin (i.e., color change from blue to pink).
Mol. Pharm. 7, 2289-2296 (2010)]. Briefly, bacteria at a final concentration of 10^6 CFU/mL were incubated with an array of antimicrobial combinations in TSB for 24 h at 37° C. The highest concentration for each antimicrobial tested was 2 × MIC. […] The fractional […] concentration index (ΣFIC) was calculated using Equation 1, reported by Elion et al. [Elion, G. B., Singer, S. & Hitchings, G. H. Antagonists of Nucleic Acid Derivatives: VIII. Synergism in combinations of biochemically related antimetabolites. […] Checkerboard assays were conducted in at least duplicate for each bacterial strain and for each drug combination.
Characterization of the combinations was performed using the following criteria based on ΣFIC values: < 0.25 is highly synergistic; ≤ 0.5 is synergistic; ≤ 1 is additive; ≤ 4 is indifferent; > 4 is antagonistic.

Structure (SMILES): NC[C@H]1O[C@H](O[C@H]2[C@H](O)[C@@H](O[C@H]3O[C@H](CO)[C@@H](O)[C@H](N)[C@H]3O)[C@H](N)C[C@@H]2N)[C@H](N)C[C@@H]1O [Tobramycin]
- interaction of tobramycin-NO combination (PA 230): indifferent
- interaction of tobramycin-NO combination (PA 239): indifferent
- interaction of tobramycin-NO combination (PA 237): synergistically
- interaction of tobramycin-NO combination (PA 229): synergistically
- Classification (ΣFIC) [1]: Additive
- ΣFIC (median fractional inhibitory concentration index) [1]: 0.625
